Where “and” joins values, the source holds several entries; their conditions need not be identical. Equal values may be shown once. Read-outs that look alike come from different tables or passages of the source.
Assays:
[1] = In vitro plasma stability; assay type: in vitro ADME; details: 5 μM inhibitor, pooled human plasma, 30 min, 37°C
Protocol: Finally, we evaluated the metabolic stability of the inhibitors in human plasma in vitro. The stability was expressed as the percentage of parental compound remaining in plasma after 30 min of incubation.
Figure S2. Antischistosomal activity, cytotoxicity, and plasma stability of selected vinyl sulfone inhibitors. A. Induction of phenotypic alterations by the inhibitors was determined with newly transformed schistosomula (NTS) of S. mansoni. The inhibitors were tested at 1 and 10 µM concentrations for 24, 48 and 72 h, and the resulting phenotypes are shown as descriptor s .2 B. Example of an inhibitor-induced phenotype in NTS of S. mansoni versus untreated controls. Images were captured using a Zeiss Axiovert 40 C inverted microscope (10x objective) and a Zeiss AxioCam MRc digital camera controlled by AxioVision 40 (v. 4.8.1.0) software. Scale bar = 0.2 mm. C. Cytotoxicity of the inhibitors towards four human cell lines expressed as % viability vs. untreated cells. Cells were treated with the indicated concentration of the compounds for 72 h and assayed by means of the XTT test (as described previously3). Standard deviation values were within 10% of the mean of tetraplicates. D. In vitro plasma stability was determined for 5 µM inhibitors incubated with pooled human plasma (Biowest) for 30 min at 37°C. The samples were deproteinized by acetonitrile a nd quantified by LC-MS (Exion LC AD/QTrap 6500+, AB Sciex). Data are expressed as a percentage of the remaining parent compound after 30 min incubation; standard deviations of the means ar e gi ve n for duplicate measurements.
(1 picture or pasted object on this page, not shown here)

[2] = tested on: S. mansoni newly transformed schistosomula (NTS); experiment: Parasite assay and phenotype scoring of newly transformed schistosomula; assay type: cell-based, Schistosoma mansoni; details: score 0 to 4, 4 most severe
Protocol: The NTS were exposed to 1 and 10 μM inhibitors, and the resulting phenotypes were graded 0 through 4 from the least to the most severe (Figure 4B).[25],[26] […] The investigated inhibitors were also tested for their cytotoxicity against four human cell lines over 72 h.
Newly transformed schistosomula (NTS) of S. mansoni were prepared by mechanically transforming infective larvae (cercariae) as described previously.[67] NTS (200–300 parasites) were incubated in 200 μL of Basch Medium 169[68] containing 5% heat-inactivated fetal bovine serum, 100 U/mL penicillin, and 100 μg/mL streptomycin at 5% CO2 and 37 °C.[67],[69] […] We use single word or phrase “descriptors”[35] to record changes in movement, shape, and translucence (Figure S2).
Figure S2. Antischistosomal activity, cytotoxicity, and plasma stability of selected vinyl sulfone inhibitors. A. Induction of phenotypic alterations by the inhibitors was determined with newly transformed schistosomula (NTS) of S. mansoni. The inhibitors were tested at 1 and 10 µM concentrations for 24, 48 and 72 h, and the resulting phenotypes are shown as descriptor s .2 B. Example […]
captured using a Zeiss Axiovert 40 C inverted microscope (10x objective) and a Zeiss AxioCam MRc digital camera controlled by AxioVision 40 (v. 4.8.1.0) software. Scale bar = 0.2 mm. C. […]

SmCB1 [3] = molecular target: T1, SmCB1 (Schistosoma mansoni, UniProt Q8MNY2, T185A/T300A); set-up: method as in PMID 21832058; details: reference compounds; SmCB1, Cbz–Phe–Arg–AMC, pH 5.5; read-out: Inhibition IC50; cited from earlier work
T1 sequence (Q8MNY2 87-340 T185A/T300A): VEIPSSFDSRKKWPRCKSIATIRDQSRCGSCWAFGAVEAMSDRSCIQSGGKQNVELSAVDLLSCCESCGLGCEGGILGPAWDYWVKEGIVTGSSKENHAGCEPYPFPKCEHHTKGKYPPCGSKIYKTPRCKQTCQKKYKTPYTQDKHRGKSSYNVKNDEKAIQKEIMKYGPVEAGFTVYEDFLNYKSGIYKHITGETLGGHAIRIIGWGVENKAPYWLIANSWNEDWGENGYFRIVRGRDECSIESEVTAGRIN

SmCB1 [4] = experiment: biochemical; assay type: biochemical, Schistosoma mansoni; details: k2nd for SmCB1 to k2nd for human cathepsin B
Protocol: (§1) (A) Sensitivity of SmCB1 and its human ortholog cathepsin B (HuCB) to inhibitors. The second order rate constants were measured in a kinetic activity assay with the fluorogenic peptide substrate Cbz–Phe–Arg–AMC at pH 5.5. […] Resulting phenotypes observed at three time points were graded by the severity score ranging from 0 to 4, with 4 being the most severe (see Figure S2A,B).
(§2) Inhibition measurements were performed in triplicates in 96-well microplates (100 μL assay volume) at 37 °C. […] The kinetics of product release was continuously monitored in an Infinite M1000 microplate reader (Tecan) at excitation and emission wavelengths of 360 and 465 nm, respectively. The IC50 values were determined by nonlinear regression using GraFit software. To determine the inhibition constant k2nd, the enzyme (40 pM SmCB1 or 60 pM HuCB) was added to a mixture of the fluorogenic substrate Cbz–Phe–Arg–AMC (20 μM for SmCB1 and 33 μM for HuCB) and an inhibitor (0–1 μM) in the assay buffer under assay conditions as above. The hydrolysis of substrate was monitored for 30 min in a microplate reader as described above. […] The second order rate constant, k2nd, was determined by fitting to the linear equation kobs = (k2nd[I])/(1 + [S]/KM), where [S] is the substrate concentration, [I] is the inhibitor concentration, and KM is the Michaelis–Menten constant.

SmCB1 [5] = molecular target: T1, SmCB1; experiment: biochemical; assay type: biochemical; details: pH 5.5, read-out: second order rate constant k2nd SmCB1
Protocol: as §1, §2

SmCB1 [6] = molecular target: T1, SmCB1; experiment: SmCB1 kinetic inhibition assay (IC50) with fluorogenic substrate Cbz–Phe–Arg–AMC; assay type: biochemical; details: recombinant SmCB1, Cbz–Phe–Arg–AMC, pH 5.5; mean ± SE, triplicate; n.i.: no significant inhibition at 100 μM
Text: Thirty-four peptidomimetic vinyl sulfone analogs (including vinyl sulfonamides and vinyl sulfonate esters) were explored as potential inhibitors of SmCB1 to infer the structural requirements of the inhibitor-binding subsites in the enzyme active site cleft. The compound scaffold is defined by positions P3 through P1′, and the substitutions were selected to provide a high diversity at P2 and P1′ (Table 1). These two positions were recently reported to display large differences in the subsite interaction energy in response to their structural modifications.[10] The compounds were screened in vitro against recombinant SmCB1, and their IC50 values were determined using a kinetic inhibition assay with the fluorogenic substrate Cbz–Phe–Arg–AMC.
Inhibition measurements were performed in triplicates in 96-well microplates (100 μL assay volume) at 37 °C. […] The kinetics of product release was continuously monitored in an Infinite M1000 microplate reader (Tecan) at excitation and emission wavelengths of 360 and 465 nm, respectively. The IC50 values were determined by nonlinear regression using GraFit software. To determine the inhibition constant k2nd, the enzyme (40 pM SmCB1 or 60 pM HuCB) was added to a mixture of the fluorogenic substrate Cbz–Phe–Arg–AMC (20 μM for SmCB1 and 33 μM for HuCB) and an inhibitor (0–1 μM) in the assay buffer under assay conditions as above. The hydrolysis of substrate was monitored for 30 min in a microplate reader as described above. An observed rate constant, kobs, was calculated at each inhibitor concentration by fitting the progress curve to the equation P = vi/kobs(1 – e^–kobst), where P is the product formation, vi is the initial velocity, and t is the reaction time. For both enzymes, kobs varied linearly with the inhibitor concentration showing that the dependence of kobs on the inhibitor concentration is nonsaturating. […] The second order rate constant, k2nd, was determined by fitting to the linear equation kobs = (k2nd[I])/(1 + [S]/KM), where [S] is the substrate concentration, [I] is the inhibitor concentration, and KM is the Michaelis–Menten constant. KM values determined for SmCB1 and HuCB were 25 and 38 μM, respectively.

human cathepsin B (HuCB) = molecular target: T2, human cathepsin B (HuCB) (Homo sapiens, UniProt P07858); experiment: Second order rate constant (k2nd) of inhibition, human cathepsin B; assay type: biochemical
T2 construct: purchased Calbiochem
Protocol: as §1, §2

| Compound | percentage of remaining parent compound in plasma [1] [%] | severity score ([2]; 1 μM, 24 hours) | severity score ([2]; 1 μM, 48 hours) | severity score ([2]; 1 μM, 72 hours) | severity score ([2]; 10 μM, 24 hours) | severity score ([2]; 10 μM, 48 hours) | severity score ([2]; 10 μM, 72 hours) | IC50 (SmCB1 [3]) [nM] | selectivity ratio (SmCB1 [4]) | kinact/KI (SmCB1 [5]) [M⁻¹ s⁻¹] | IC50 (SmCB1 [6]) | second order rate constant k2nd HuCB (human cathepsin B (HuCB); Cbz–Phe–Arg–AMC, pH 5.5, mean of triplicate) | kinact/KI (human cathepsin B (HuCB); pH 5.5, read-out: second order rate constant k2nd HuCB) [M⁻¹ s⁻¹] |
| --- | --- | --- | --- | --- | --- | --- | --- | --- | --- | --- | --- | --- | --- |
| CN1CCN(C(=O)N[C@@H](Cc2ccccc2)C(=O)N[C@H](/C=C/S(=O)(=O)c2ccccc2)CCc2ccccc2)CC1 [K11777, N-methylpiperazine-phenylalanyl-homophenylalanyl-vinylsulfone-phenyl, reference compound] | 88 | 0 | 0 | 3 | 0 | 1 | 3 | 2.09 ± 0.08 | – | – | – | – | – |
| CC(C)C[C@H](NC(=O)N1CCOCC1)C(=O)N[C@H](/C=C/S(=O)(=O)c1ccccc1)CCc1ccccc1 [K11017, morpholino urea-leucyl-homophenylalanyl-vinylsulfone-phenyl] | – | – | – | – | – | – | – | 1.71 ± 0.13 | – | – | – | – | – |
| CN1CCN(C(=O)N[C@@H](Cc2ccccc2)C(=O)N[C@H](/C=C/S(=O)(=O)NOCc2ccccc2)CCc2ccccc2)CC1 [WRR-286] | 107 | 0 | 0 | 4 | 0 | 4 | 4 | – | about 6.0 | 200000 | ~0.6 nM and 0.61 nM | 33 618 M^–1 s^–1 | 33600 |
